The results in this text go back to patent publication US20210062178A1, “NOVEL XYLOSE ISOMERASE GENE AND POLYPEPTIDE AND USES THEREOF” (The Regents of the University of California, priority 2019, published 2021).

This test relates to new D-xylose isomerase (XI) 8454_2 from the gut of Odontotaenius disjunctus, SEQ ID NO: 2. As to the kind of experiment: Enzymatic activity of xylose isomerase in crude cell extracts, coupled sorbitol dehydrogenase (SDH) assay, NADH depletion at 340 nm. In kind it is biochemical. The procedure: This clone was then was cultivated in liquid medium containing xylose as the sole carbon source in parallel with an identical clone carrying the same metabolic pathway, but instead expressing a XI from Piromyces sp (opt.PiXI). Opt.PiXI is a codon-optimized version of the XI gene from Piromyces sp.
Specific enzymatic activity was measured using a coupled enzyme (sorbitol dehydrogenase—SDH) that converts the product of XI (xylulose) into xylitol. In this process, for each molecule of xylose converted to xylulose, a molecule of NADH is converted in NAD+. NADH depletion is quantified by spectrophotometry at an optical density of 340 nm, and XI activity is stoichiometrically inferred. For the enzymatic activity, crude cell extracts were prepared using the same conditions for both strains (carrying 8454_2 or opt.PiXI genes) and immediately used.

The term Km denotes the substrate concentration at which the rate is half of its maximum. Consider `OC1OC[C@@H](O)[C@H](O)[C@H]1O` (stereo partly drawn) [D-xylose], for which, for the setting “compared with XI from Piromyces sp. (opt.PiXI) under identical biological backgrounds and experimental conditions”, the “isomerization maximal velocity (Vmax) relative to the XI from Piromyces sp.” value is recorded as “three times higher”. The Km (new XI, expressed in S. cerevisiae) came to 19 mM.
